Non-standard residues stand in square brackets, D forms with d. Residues, ends and D or L forms follow the SMILES beside them. pGlu = O=C1CC[C@@H](C(=O)O)N1
Biological target: T1, SH3-2 domain of NCK1 (Homo sapiens, UniProt P16333)
T1 construct: To amplify the NCK1 SH3-2 domain, the primers; 10xHis tag with TEV site (vector pSF-OXB20-NH2-10HIS) (N, cleaved yes); made in house; host or cells: E. coli C43(DE3)
Test: Isothermal titration calorimetry (ITC) binding to NCK1 SH3-2 domain
Settings: ITC; for Kd: 25 °C, pH 8.0
Text: Human PTP1B cDNA (NM_002827) and human NCK1 cDNA (NM 006153) were obtained (Origene, MD, USA). PTP1B Primers were designed to amplify the ORFs with added homology to the cut vector (EcoRI-digested pSF-OXB20-NH2-10HIS) in the forward primer sequence. To amplify full-length PTP1B, the primers ptp1b_FL_fwd ([…]) (SEQ ID NO: 159) and ptp1b_FL_rev ([…]) (SEQ ID NO: 160) were used. To amplify truncations of PTP1B, the following primer pairs were used: ptp1b_FL-Fwd and one of Ptplb_323stop_rev (gtgcaggaggagttcgaatt[…]) (SEQ ID NO: 161), ptp1b_344stop_rev ([…]) (SEQ ID NO: 162) or ptp1b_278stop_rev([…]) (SEQ ID NO: 163). To amplify the NCK1 SH3-2 domain, the primers ncklsh32_fwd ([…]) (SEQ ID NO: 164) and ncklsh32_rev ([…]) (SEQ ID NO: 165) were used. The amplified fragments were purified using a DNA clean-up kit according to manufacturer's instructions (QIAquick PCR purification kit, Qiagen).
To produce and purify fusion proteins, a culture was inoculated with 1% of overnight-cultured inoculum. Protein expression was carried out under the conditions described above, scaled up as necessary. Cells expressing the recombinant proteins were harvested in 50 mL tubes by centrifugation and stored at −80 °C. Cells containing the expressed gene product were thawed over ice and resuspended in Extraction buffer (10 mM Tris, pH 7.4 or 10 mM Sodium Phosphate, pH 8.0; 300 mM NaCl, 1 mM DTT or TCEP; 0-10% glycerol and 1 μg lysozyme) and sonicated over ice (4 °C) for 3 min total using pulses of 5 s with 15 s intervals, using a wide probe at 15 amplitude microns (Soniprep 150, MSE). Insoluble material was removed from the lysate by centrifugation at 20K rpm for 20-60 min at 4 °C. Supernatant was filtered through a 0.22 μm PVDF filter membrane and applied to 1-2 5 mL HisTrap FF Crude (Cytiva) prepacked Ni columns and connected to an AKTA explorer. After thorough washing with binding buffer (10 mM Tris, pH 7.4 or 10 mM Sodium Phosphate, pH 8.0; 300 mM NaCl; 1 mM DTT or TCEP and 25 mM Imidazole), protein was eluted using elution buffer (10 mM Tris, pH 7.4 or 10 mM Sodium Phosphate, pH 8.0; 150-300 mM NaCl; 1 mM DTT or TCEP and 250 mM Imidazole). Fractions containing protein of interest were confirmed by SDS PAGE. Protein was diluted with GF buffer (10 mM Tris, pH 7.4 or 10 mM Sodium Phosphate, pH 8.0; 150-300 mM NaCl) and subjected to TEV protease treatment overnight at 4-10 °C. Following proteolytic digestion, HIS-tag and TEV protease were removed by filtration through a clean 5 mL HisTrap FF Crude (Cytiva) prepacked Ni column. Protein was concentrated on a PES ultrafiltration device by centrifugation at 4000 rpm at 4 °C, and protein was polished via a HiPrep S-100 26/60 (Cytiva) using GF buffer (as described above). Purified proteins were concentrated using ultrafiltration, and protein concentration was determined using ultraviolet-visible spectroscopy. The integrity and identity of all proteins were verified by mass spectrographic analysis.
Isothermal titration calorimetry (ITC) was used to determine binding affinities for peptides against the SH3-2 domain of NCK1. Experiments were conducted at 25 °C using either a MicroCal iTC200 or MicroCal PEAQ-ITC calorimeter. The buffer used for all ITC experiments was 10 mM sodium [COMPOUND LEFT OUT] mM sodium chloride (pH=8.0). A series of peptides (concentration 3-7.5 mM) were titrated in to NCK1 SH3-2 domain (concentration 0.125-0.3 mM) using the following conditions: one injection of 0.2 μL followed by 19 injections of 2 μL, 120-150 seconds spacing between injections, at 25 °C. The data were fit using analysis software provided by the manufacturer and affinity values were calculated. The best fitting occurred when the number of sites was between 0.8 and 1.2. The experiments were repeated twice for a total of three times, and the average binding affinity for each peptide was generated. […]

[1] = Alanine scanning of the MD20 6-mer peptide
[2] = Alanine scanning of the MD17 15-mer peptide
[3] = N- or C-terminal extensions, 30-mers tested one to three times
[4] = substitutions at position 3 of MD18
[5] = substitutions at position 8 of the 8-mer MH063, certain peptides tested one to three times
[6] = substitutions at position 4 of MD18 in a 7-mer
[7] = Sliding window peptide analysis
[8] = substitutions at position 6 of MD18
[9] = substitutions at position 1 of MD18

CC(=O)N[C@@H](CCCNC(=N)N)C(=O)N1CCC[C@H]1C(=O)N1CCC[C@H]1C(N)=O [MH020, Ac-RPP-NH2] (Ac-Arg-Pro-Pro-NH2)
Kd (Peptide truncation analysis): > 1000 µM

Ac-PPRPPKK-NH2 [MH076, Ac-PPRPPKK-NH2]
Kd (Modified MD18/MD20 peptides): > 1000 µM

CC(=O)N1CCC[C@H]1C(=O)N[C@@H](CCCNC(=N)N)C(=O)N1CCC[C@H]1C(=O)N1CCC[C@H]1C(N)=O [MH021, Ac-PRPP-NH2] (Ac-PRPP-NH2)
Kd (Peptide truncation analysis): > 1000 µM

Ac-ARPPKR-NH2 [MH008, Ac-ARPPKR-NH2]
Kd [1]: > 1000 µM

H-PRPPKR-NH2 [MH080, H-PRPPKR-NH2]
Kd (Modified MD18/MD20 peptides): > 1000 µM

H-PPRPPKR-NH2 [MH075, H-PPRPPKR-NH2]
Kd (Modified MD18/MD20 peptides): ≤ 300 µM

Ac-PPPEHIAPPPRPPKR-NH2 [MSJ018]
Kd [2]: ≤ 300 µM

CCNC(=O)[C@H](CCCNC(=N)N)NC(=O)[C@H](CCCCN)NC(=O)[C@@H]1CCCN1C(=O)[C@@H]1CCCN1C(=O)[C@H](CCCNC(=N)N)NC(=O)[C@@H]1CCCN1C(=O)[C@@H]1CCCN1C(C)=O [MH046, Ac-PPRPPKR-NHEt] (Ac-PPRPPKR-NHEt)
Kd (Modified MD18/MD20 peptides): ≤ 300 µM

Ac-PPPEHIPPPPRPPKRILE-NH2 [MH077]
Kd [3]: ≤ 300 µM

Ac-PPCPPKR-NH2 [MH061, Ac-PPCPPKR-NH2]
Kd [4]: ≤ 300 µM

Ac-PPIPPKR-NH2 [MH096, Ac-PPIPPKR-NH2]
Kd [4]: ≤ 300 µM

Ac-PPRPPKRG-NH2 [MH145]
Kd [5]: ≤ 300 µM

Ac-PPRMPKR-NH2 [MH111, Ac-PPRMPKR-NH2]
Kd [6]: > 1000 µM

Ac-PPRPPKRK-NH2 [MH148]
Kd [5]: ≤ 300 µM

Ac-PPPAHIPPPPRPPKR-NH2 [MSJ015]
Kd [2]: ≤ 300 µM

Ac-PPPEHIPPPPAPPKR-NH2 [MH003]
Kd [2]: ≤ 300 µM

Ac-PPRNPKR-NH2 [MH127, Ac-PPRNPKR-NH2]
Kd [6]: > 1000 µM

Ac-IPPPPR-NH2 [MH038, Ac-IPPPPR-NH2]
Kd [7]: > 1000 µM

N=C(N)NCCC[C@H](NC(=O)[C@H](CCCCN)NC(=O)[C@@H]1CCCN1C(=O)[C@@H]1CCCN1C(=O)[C@H](CCCNC(=N)N)NC(=O)[C@@H]1CCCN1C(=O)[C@@H]1CCC(=O)N1)C(N)=O [MH043, H-Pyr-PRPPKR-NH2] ([pGlu]PRPPKR-NH2)
Kd (Modified MD18/MD20 peptides): ≤ 300 µM

Ac-PPNPPKR-NH2 [MH060, Ac-PPNPPKR-NH2]
Kd [4]: ≤ 300 µM

Ac-RPPKR-NH2 [MH018, Ac-RPPKR-NH2]
Kd (Peptide truncation analysis): > 1000 µM

Ac-PPPRPPK-NH2 [MH041, Ac-PPPRPPK-NH2]
binding to NCK1 SH3-2 domain (in words): abolished binding
Kd [7]: > 1000 µM

Ac-PRPPAR-NH2 [MH012, Ac-PRPPAR-NH2]
Kd [1]: 300 to 600 µM

Ac-IPPPPRPPKR-NH2 [MH026]
Kd (Peptide truncation analysis): ≤ 300 µM

Ac-PPRPPKRA-NH2 [MH138]
Kd [5]: ≤ 300 µM

Ac-PPAEHIPPPPRPPKR-NH2 [MSJ014]
Kd [2]: ≤ 300 µM

Ac-PPWPPKR-NH2 [MH056, Ac-PPWPPKR-NH2]
Kd [4]: 300 to 600 µM

Ac-PPRPPDR-NH2 [MH085, Ac-PPRPPDR-NH2]
Kd [8]: 300 to 600 µM

Ac-PPPEHIPPAPRPPKR-NH2 [MH001]
Kd [2]: ≤ 300 µM

Ac-PPRTPKR-NH2 [MH115, Ac-PPRTPKR-NH2]
Kd [6]: 300 to 600 µM

Ac-PPRPPVR-NH2 [MH126, Ac-PPRPPVR-NH2]
Kd [8]: ≤ 300 µM

CC(=O)N1CCC[C@H]1C(=O)N1CCC[C@H]1C(=O)N[C@@H](CCCCN)C(=O)N[C@@H](CCCNC(=N)N)C(N)=O [MH017, Ac-PPKR-NH2] (Ac-PPKR-NH2)
Kd (Peptide truncation analysis): > 1000 µM

Ac-PPRLPKR-NH2 [MH101, Ac-PPRLPKR-NH2]
Kd [6]: 300 to 600 µM

Ac-PPRPPKRILE-NH2 [MH065]
Kd [3]: ≤ 300 µM

Ac-PPRPPSR-NH2 [MH052, Ac-PPRPPSR-NH2]
Kd [8]: ≤ 300 µM

Ac-PPYPPKR-NH2 [MH120, Ac-PPYPPKR-NH2]
Kd [4]: ≤ 300 µM

Ac-CPRPPKR-NH2 [MH070, Ac-CPRPPKR-NH2]
Kd [9]: ≤ 300 µM

Ac-PPRPPFR-NH2 [MH105, Ac-PPRPPFR-NH2]
Kd [8]: 300 to 600 µM

Ac-PPLPPKR-NH2 [MH100, Ac-PPLPPKR-NH2]
Kd [4]: ≤ 300 µM

Ac-PPRPPKRR-NH2 [MH139]
Kd [5]: ≤ 300 µM

Ac-PPPEAIPPPPRPPKR-NH2 [MSJ016]
Kd [2]: ≤ 300 µM

Ac-PRPAKR-NH2 [MH011, Ac-PRPAKR-NH2]
Kd [1]: > 1000 µM

Ac-PRPPKA-NH2 [MH013, Ac-PRPPKA-NH2]
Kd [1]: > 1000 µM
binding to NCK1 SH3-2 domain (in words): abolished binding

Ac-PPRPPWR-NH2 [MH050, Ac-PPRPPWR-NH2]
Kd [8]: ≤ 300 µM

Ac-PPTPPKR-NH2 [MH114, Ac-PPTPPKR-NH2]
Kd [4]: ≤ 300 µM

Ac-PPPRPPKR-NH2 [MH024]
Kd (Peptide truncation analysis): ≤ 300 µM

Ac-HEDLEPPPEHIPPPPRPPKR-NH2 [MH090]
Kd [3]: ≤ 300 µM

Ac-PPPEHIPPPPRPPKRILEPHNGKCR-NH2 [MH134]
Kd [3]: ≤ 300 µM

Ac-FPRPPKR-NH2 [MH073, Ac-FPRPPKR-NH2]
Kd [9]: ≤ 300 µM

Ac-PPRVPKR-NH2 [MH125, Ac-PPRVPKR-NH2]
Kd [6]: ≤ 300 µM

Ac-PPPEHIPPPARPPKR-NH2 [MH002]
Kd [2]: > 1000 µM

Ac-PPPEHIPPPPRPPKRILEPH-NH2 [MH089]
Kd [3]: ≤ 300 µM

Ac-PPRFPKR-NH2 [MH067, Ac-PPRFPKR-NH2]
Kd [6]: 600 to 1000 µM

Ac-HIPPPPRPPKR-NH2 [MH027]
Kd (Peptide truncation analysis): ≤ 300 µM

Ac-PPRIPKR-NH2 [MH097, Ac-PPRIPKR-NH2]
Kd [6]: ≤ 300 µM

Ac-EHIPPPPRPPKR-NH2 [MH028]
Kd (Peptide truncation analysis): ≤ 300 µM

Ac-SPAKGEPSLPEK-NH2 [MH133, reference compound]
Kd (exemplary control peptides): > 1000 µM

CC(=O)N1CCC[C@H]1C(=O)N[C@@H](CCCNC(=N)N)C(=O)N1CCC[C@H]1C(N)=O [MH019, Ac-PRP-NH2] (Ac-Pro-Arg-Pro-NH2)
Kd (Peptide truncation analysis): > 1000 µM

Ac-PPSPPKR-NH2 [MH059, Ac-PPSPPKR-NH2]
Kd [4]: ≤ 300 µM

Ac-PPRPPHR-NH2 [MH049, Ac-PPRPPHR-NH2]
Kd [8]: ≤ 300 µM

Ac-PPPPRP-NH2 [MH037, Ac-PPPPRP-NH2]
Kd [7]: > 1000 µM

Ac-PPRPPIR-NH2 [MH098, Ac-PPRPPIR-NH2]
Kd [8]: ≤ 300 µM
